# How the values were obtained:
# Experiment in all cases: relative viability (nuclei count vs DMSO), 5 days (fraction); higher = more cells survive
# [1] = compound: CCN(CCO)CCCC(C)Nc1ccnc2cc(Cl)ccc12 [Hydroxychloroquine] + Cc1nc(Nc2ncc(C(=O)Nc3c(C)cccc3Cl)s2)cc(N2CCN(CCO)CC2)n1 [Dasatinib] (partner 0.075 µM)
# Outline: (§1)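 Relative viability was taken as the ratio of nuclei in treated wells to nuclei in vehicle wells. Lung cancer cell lines in 1536-well plates received compounds by pin tool one day after seeding, either one drug alone or a fixed anchor-drug dose plus five library-drug doses (not always all listed) in √10 steps. Nuclei were counted on 4× images after 5 days of treatment, and values are medians of duplicate plates.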
# [2] = compound: CCN(CCO)CCCC(C)Nc1ccnc2cc(Cl)ccc12 [Hydroxychloroquine] + Nc1ncn([C@H]2C[C@H](O)[C@@H](CO)O2)c(=O)n1 [Decitabine] (partner 2 µM)
# Outline: as §1
# [3] = compound: CCN(CCO)CCCC(C)Nc1ccnc2cc(Cl)ccc12 [Hydroxychloroquine] + COc1cc2c(Oc3ccc(NC(=O)C4(C(=O)Nc5ccc(F)cc5)CC4)cc3F)ccnc2cc1OCCCN1CCOCC1 [Foretinib] (partner 0.25 µM)
# Outline: as §1
# [4] = compound: CCN(CCO)CCCC(C)Nc1ccnc2cc(Cl)ccc12 [Hydroxychloroquine] + CCNC(=O)c1noc(-c2cc(C(C)C)c(O)cc2O)c1-c1ccc(CN2CCOCC2)cc1 [Luminespib] (partner 0.01 µM)
# Outline: as §1
Cell Line,relative viability ([1]; first compound 0.5 µM),relative viability ([1]; first compound 1.581 µM),relative viability ([1]; first compound 5 µM),relative viability ([1]; first compound 15.81 µM),relative viability ([1]; first compound 50 µM),relative viability ([2]; first compound 0.5 µM),relative viability ([2]; first compound 1.581 µM),relative viability ([2]; first compound 5 µM),relative viability ([2]; first compound 15.81 µM),relative viability ([2]; first compound 50 µM),relative viability ([3]; first compound 0.5 µM),relative viability ([3]; first compound 1.581 µM),relative viability ([3]; first compound 5 µM),relative viability ([3]; first compound 15.81 µM),relative viability ([3]; first compound 50 µM),relative viability ([4]; first compound 0.5 µM),relative viability ([4]; first compound 1.581 µM),relative viability ([4]; first compound 5 µM),relative viability ([4]; first compound 15.81 µM),relative viability ([4]; first compound 50 µM)
NCI-H2126,0.724,0.564,0.596,0.622,0.615,0.584,0.547,0.57,0.579,0.566,1.21,1.11,1.33,1.08,1.1,0.908,0.838,0.823,0.96,0.931
NCI-H2170,0.645,0.601,0.558,0.62,0.673,0.438,0.449,0.396,0.438,0.457,1.04,1.04,0.973,1.01,1.1,0.543,0.646,0.765,0.714,1.01
NCI-H2342,0.338,0.312,0.32,0.292,0.34,0.774,0.765,0.782,0.756,0.769,0.917,0.995,1.05,1.01,1.1,0.606,0.668,0.706,0.69,0.809
NCI-H2347,0.281,0.149,0.325,0.281,0.274,0.658,0.536,0.618,0.573,0.636,0.936,0.663,0.885,,0.683,0.308,0.342,0.531,0.729,0.361
NCI-H2405,0.225,0.164,0.225,0.203,0.204,0.718,0.743,0.774,0.69,0.761,1.11,0.975,1.05,1.02,1.05,0.763,0.613,0.671,0.663,0.579
NCI-H3122,0.879,0.858,0.894,0.92,0.867,0.429,0.413,0.468,0.426,0.403,0.92,0.934,0.945,0.985,1.03,0.11,0.0839,0.104,0.109,0.0905
PC-3 [JPC-3],0.94,0.873,0.971,1.21,1.16,0.814,0.767,0.805,0.792,0.761,1.07,1.14,0.99,1.02,1.07,0.762,0.711,0.745,0.686,0.774
PC-14,0.232,0.199,0.253,0.213,0.29,0.248,0.149,0.214,0.231,0.201,0.909,0.987,1.01,0.972,0.962,0.17,0.151,0.17,0.173,0.154
RERF-LC-KJ,0.71,0.731,0.793,0.734,1.02,0.659,0.684,0.754,0.7,0.608,0.757,0.825,0.872,0.918,0.941,1.08,1.22,1.31,1.14,1.1
SK-LU-1,0.214,0.168,0.174,0.16,0.17,0.605,0.631,0.664,0.557,0.762,0.849,0.769,0.834,0.787,0.926,0.21,0.209,0.21,0.205,0.187
SK-MES-1,0.342,0.306,0.388,0.37,0.339,0.389,0.304,0.419,0.361,0.366,0.883,0.822,1.04,0.901,0.792,0.725,0.818,0.778,0.84,0.661
SW 1573,0.465,0.379,0.506,0.414,0.676,0.444,0.296,0.409,0.554,0.428,1.06,0.774,1.08,0.686,0.871,0.399,0.153,0.203,0.174,0.193
UMC-11,,0.504,0.473,0.628,0.6,0.541,0.485,0.633,0.663,0.619,,0.978,1.12,1.04,1.19,,1.01,1.05,1.1,1.04

# — the supplement of paper PMC10307832
